Source: patent publication US8969516B2, “Method of hydrolysis of peptide bond” (priority 2006, dated 2015)

Experiment: MALDI-TOF screening of Ni^2+ dependent hydrolysis in a combinatorial peptide library
Type: physicochemical
Settings: CH3CO-Gly-Ala-Thr-X-His-Z-Lys-Phe-Leu-NH2 library, Ni^2+ 2 mM, pH 8.2, 10 mM Tris, score=24/tm
In short: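 Sublibraries of Ac-Gly-Ala-Ser/Thr-X-His-Z-Lys-Phe-Leu-NH2, randomized at Z and fixed at X, were hydrolyzed at 1 mM total peptide with 2 mM Ni2+ in 10 mM Tris, pH 8.2, at 37 °C or 45 °C. Cleavage was scored visually in MALDI-TOF spectra at 2, 4, 6 and 8 h.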

Row | Substance | hydrolysis score from MALDI-TOF screening (37° C.) | hydrolysis score from MALDI-TOF screening (45° C.)
1 | Ac-GATNHTKFL-NH2 [TNHT] | 0 (a score of 0 if no trace of the product of hydrolysis was seen after 8 hours of incubation) | 0 (a score of 0 if no trace of the product of hydrolysis was seen after 8 hours of incubation)
2 | Ac-GATNHVKFL-NH2 [TNHV] | 0 (a score of 0 if no trace of the product of hydrolysis was seen after 8 hours of incubation) | 0 (a score of 0 if no trace of the product of hydrolysis was seen after 8 hours of incubation)
3 | Ac-GATNHWKFL-NH2 [TNHW] | 0 (a score of 0 if no trace of the product of hydrolysis was seen after 8 hours of incubation) | 3 (a score of 3 for detection at 8 hours)
4 | Ac-GATNHYKFL-NH2 [TNHY] | 0 (a score of 0 if no trace of the product of hydrolysis was seen after 8 hours of incubation) | 0 (a score of 0 if no trace of the product of hydrolysis was seen after 8 hours of incubation)
5 | Ac-GATPHAKFL-NH2 [TPHA] | – | 0 (a score of 0 if no trace of the product of hydrolysis was seen after 8 hours of incubation)
6 | Ac-GATPHDKFL-NH2 [TPHD] | – | 0 (a score of 0 if no trace of the product of hydrolysis was seen after 8 hours of incubation)
7 | Ac-GATPHEKFL-NH2 [TPHE] | – | 0 (a score of 0 if no trace of the product of hydrolysis was seen after 8 hours of incubation)
8 | Ac-GATPHFKFL-NH2 [TPHF] | – | 0 (a score of 0 if no trace of the product of hydrolysis was seen after 8 hours of incubation)
9 | Ac-GATPHGKFL-NH2 [TPHG] | – | 0 (a score of 0 if no trace of the product of hydrolysis was seen after 8 hours of incubation)
10 | Ac-GATPHHKFL-NH2 [TPHH] | – | 0 (a score of 0 if no trace of the product of hydrolysis was seen after 8 hours of incubation)
11 | Ac-GATPHIKFL-NH2 [TPHI] | – | 0 (a score of 0 if no trace of the product of hydrolysis was seen after 8 hours of incubation)
12 | Ac-GATPHKKFL-NH2 [TPHK] | – | 0 (a score of 0 if no trace of the product of hydrolysis was seen after 8 hours of incubation)
13 | Ac-GATPHLKFL-NH2 [TPHL] | – | 0 (a score of 0 if no trace of the product of hydrolysis was seen after 8 hours of incubation)
14 | Ac-GATPHNKFL-NH2 [TPHN] | – | 0 (a score of 0 if no trace of the product of hydrolysis was seen after 8 hours of incubation)
15 | Ac-GATPHPKFL-NH2 [TPHP] | – | 0 (a score of 0 if no trace of the product of hydrolysis was seen after 8 hours of incubation)
16 | Ac-GATPHQKFL-NH2 [TPHQ] | – | 0 (a score of 0 if no trace of the product of hydrolysis was seen after 8 hours of incubation)
17 | Ac-GATPHRKFL-NH2 [TPHR] | – | 0 (a score of 0 if no trace of the product of hydrolysis was seen after 8 hours of incubation)
18 | Ac-GATPHSKFL-NH2 [TPHS] | – | 0 (a score of 0 if no trace of the product of hydrolysis was seen after 8 hours of incubation)
19 | Ac-GATPHTKFL-NH2 [TPHT] | – | 0 (a score of 0 if no trace of the product of hydrolysis was seen after 8 hours of incubation)
20 | Ac-GATPHVKFL-NH2 [TPHV] | – | 0 (a score of 0 if no trace of the product of hydrolysis was seen after 8 hours of incubation)
21 | Ac-GATPHWKFL-NH2 [TPHW] | – | 0 (a score of 0 if no trace of the product of hydrolysis was seen after 8 hours of incubation)
22 | Ac-GATPHYKFL-NH2 [TPHY] | – | 0 (a score of 0 if no trace of the product of hydrolysis was seen after 8 hours of incubation)
23 | Ac-GATQHAKFL-NH2 [TQHA] | 0 (a score of 0 if no trace of the product of hydrolysis was seen after 8 hours of incubation) | 0 (a score of 0 if no trace of the product of hydrolysis was seen after 8 hours of incubation)

Row | Substance | hydrolysis score from MALDI-TOF screening (37° C.) | hydrolysis score from MALDI-TOF screening (45° C.)
24 | Ac-GATQHDKFL-NH2 [TQHD] | 0 (a score of 0 if no trace of the product of hydrolysis was seen after 8 hours of incubation) | 0 (a score of 0 if no trace of the product of hydrolysis was seen after 8 hours of incubation)
25 | Ac-GATQHEKFL-NH2 [TQHE] | 0 (a score of 0 if no trace of the product of hydrolysis was seen after 8 hours of incubation) | 0 (a score of 0 if no trace of the product of hydrolysis was seen after 8 hours of incubation)
26 | Ac-GATQHFKFL-NH2 [TQHF] | 0 (a score of 0 if no trace of the product of hydrolysis was seen after 8 hours of incubation) | 0 (a score of 0 if no trace of the product of hydrolysis was seen after 8 hours of incubation)
27 | Ac-GATQHGKFL-NH2 [TQHG] | 0 (a score of 0 if no trace of the product of hydrolysis was seen after 8 hours of incubation) | 0 (a score of 0 if no trace of the product of hydrolysis was seen after 8 hours of incubation)
28 | Ac-GATQHHKFL-NH2 [TQHH] | 0 (a score of 0 if no trace of the product of hydrolysis was seen after 8 hours of incubation) | 0 (a score of 0 if no trace of the product of hydrolysis was seen after 8 hours of incubation)
29 | Ac-GATQHIKFL-NH2 [TQHI] | 0 (a score of 0 if no trace of the product of hydrolysis was seen after 8 hours of incubation) | 3 (a score of 3 for detection at 8 hours)
30 | Ac-GATQHKKFL-NH2 [TQHK] | 0 (a score of 0 if no trace of the product of hydrolysis was seen after 8 hours of incubation) | 3 (a score of 3 for detection at 8 hours)
31 | Ac-GATQHLKFL-NH2 [TQHL] | 0 (a score of 0 if no trace of the product of hydrolysis was seen after 8 hours of incubation) | 3 (a score of 3 for detection at 8 hours)
32 | Ac-GATQHMKFL-NH2 [TQHM] | 0 (a score of 0 if no trace of the product of hydrolysis was seen after 8 hours of incubation) | 0 (a score of 0 if no trace of the product of hydrolysis was seen after 8 hours of incubation)
33 | Ac-GATQHNKFL-NH2 [TQHN] | 0 (a score of 0 if no trace of the product of hydrolysis was seen after 8 hours of incubation) | 0 (a score of 0 if no trace of the product of hydrolysis was seen after 8 hours of incubation)
34 | Ac-GATQHPKFL-NH2 [TQHP] | 0 (a score of 0 if no trace of the product of hydrolysis was seen after 8 hours of incubation) | 0 (a score of 0 if no trace of the product of hydrolysis was seen after 8 hours of incubation)
35 | Ac-GATQHQKFL-NH2 [TQHQ] | 0 (a score of 0 if no trace of the product of hydrolysis was seen after 8 hours of incubation) | 0 (a score of 0 if no trace of the product of hydrolysis was seen after 8 hours of incubation)
36 | Ac-GATQHRKFL-NH2 [TQHR] | 3 (a score of 3 for detection at 8 hours) | 4 (a score of 4 for detection at 6 hours)
37 | Ac-GATQHSKFL-NH2 [TQHS] | 0 (a score of 0 if no trace of the product of hydrolysis was seen after 8 hours of incubation) | 0 (a score of 0 if no trace of the product of hydrolysis was seen after 8 hours of incubation)
38 | Ac-GATQHTKFL-NH2 [TQHT] | 0 (a score of 0 if no trace of the product of hydrolysis was seen after 8 hours of incubation) | 0 (a score of 0 if no trace of the product of hydrolysis was seen after 8 hours of incubation)
39 | Ac-GATQHVKFL-NH2 [TQHV] | 0 (a score of 0 if no trace of the product of hydrolysis was seen after 8 hours of incubation) | 0 (a score of 0 if no trace of the product of hydrolysis was seen after 8 hours of incubation)
40 | Ac-GATQHWKFL-NH2 [TQHW] | 3 (a score of 3 for detection at 8 hours) | 4 (a score of 4 for detection at 6 hours)
41 | Ac-GATQHYKFL-NH2 [TQHY] | 0 (a score of 0 if no trace of the product of hydrolysis was seen after 8 hours of incubation) | 0 (a score of 0 if no trace of the product of hydrolysis was seen after 8 hours of incubation)
42 | Ac-GATRHAKFL-NH2 [TRHA] | 0 (a score of 0 if no trace of the product of hydrolysis was seen after 8 hours of incubation) | 3 (a score of 3 for detection at 8 hours)
43 | Ac-GATRHDKFL-NH2 [TRHD] | 0 (a score of 0 if no trace of the product of hydrolysis was seen after 8 hours of incubation) | 0 (a score of 0 if no trace of the product of hydrolysis was seen after 8 hours of incubation)
44 | Ac-GATRHEKFL-NH2 [TRHE] | 0 (a score of 0 if no trace of the product of hydrolysis was seen after 8 hours of incubation) | 0 (a score of 0 if no trace of the product of hydrolysis was seen after 8 hours of incubation)
45 | Ac-GATRHFKFL-NH2 [TRHF] | 3 (a score of 3 for detection at 8 hours) | 4 (a score of 4 for detection at 6 hours)
46 | Ac-GATRHGKFL-NH2 [TRHG] | 0 (a score of 0 if no trace of the product of hydrolysis was seen after 8 hours of incubation) | 0 (a score of 0 if no trace of the product of hydrolysis was seen after 8 hours of incubation)
